From patent US12465629B2, “Prevention and treatment of organ injuries” (Farsight Medical Technology (Shanghai) Co., Ltd., priority 2020, dated 2025)

How the values were obtained:
[1] = test system: LPS induced lung injury in SD rats; test: Acute lung injury model study II (LPS induced) in rats; type: in vivo; settings: 1 and 3 mg/kg iv (G4, G5) at 1 h, 7 h, 24 h after LPS
Protocol: A study was conducted to assess the effect of combined administration of dexamethasone and Compound I in an acute lung injury model. LPS (lipopolysaccharide) was administered to induce lung injury in SD rats (SPF grade male, body weight 180-200 g).
Study group 1 (G1) served as sham control group (no induced acute lung injury) and Group 2 (G2) served as model group (acute lung injury, no treatment).
Dexamethasone, prepared as an aqueous solution, prepared by dissolving the appropriate amount in saline, was used as a positive control in group 3 (G3), and was also administered to group 6 (G6) and group 7 (G7), which also received Compound I. A lyophilized powder of Compound I, was dissolved in an aqueous reconstitution solution comprising Tween 80, acetic acid, sodium acetate, and further diluted with saline before application.
The animals were weighed. LPS (5 mg/kg) was then injected via the trachea of the rat after anesthesia and surgery to expose the trachea (all groups except for G1 where no LPS was injected). […]
Non-invasive lung function tests were determined at 24 hours and at 48 hours (end of the study). […]
Whole lung tissue samples were taken at end of study for histological examination. The histological examination comprised random selection of visual field areas which were blind scored for lung injury. […]

[2] = Comparative pharmacokinetic study, tissue distribution; set-up: species or system SD rats; settings: rat, in vivo, iv, 3 mg/kg
Protocol: At the respective time points, blood samples and respective organ/tissues were collected and processed according to standard procedures The concentration of the respective drugs in the respective tissues were then measured using a validated LC-Ms/Ms method.

[3] = test system: LPS induced lung injury in C57BL/6 mice; test: Acute lung injury model study (LPS induced) in mice; type: in vivo
Protocol: Compound I was tested in an in vivo mouse model for acute lung injury.
LPS (lipopolysaccharide) was administered to induce lung injury in C57BL/6 mice. LPS elicits an acute inflammatory response in the lung, resulting in progressive damage, and necrosis of lung tissue including the bronchial wall, and alveoli.
LPS (0.3 mg/kg) was administered directly to the trachea of anaesthetized mice in study groups 2 to 6. […]
Non-invasive lung function tests including respiratory frequency, tidal volume, maximum inspiratory speeds and maximal expiratory speeds were determined on Day 2 and end of the study, 24 h after LPS was initially administered.
A significant impact was moreover observed with regards to the pathology of the lung tissue of the mice subjects. […] The histological examination comprised random selection of visual field areas which were blind scored for lung injury according to the following criteria: 1) alveolar congestion, 2) hemorrhage, 3) infiltration of inflammatory cells, and 4) thickness of alveolar wall according to a scale of 0 (minimal damage), 1, (mild damage), 2 (moderate damage), 3 (severe damage), and 4 (maximal damage). […]

Q: What does the source list for `C/C=C/C[C@@H](C)[C@@H](O)[C@H]1C(=O)N[C@@H](CC)C(=O)N(C)[C@H](OCCN(C)C)C(=O)N(C)[C@@H](CC(C)C)C(=O)N[C@@H](C(C)C)C(=O)N(C)[C@@H](CC(C)C)C(=O)N[C@@H](C)C(=O)N[C@H](C)C(=O)N(C)[C@@H](CC(C)C)C(=O)N(C)[C@@H](CC(C)C)C(=O)N(C)[C@@H](C(C)C)C(=O)N1C` [Compound I, [(R)-2′(2-dimethylaminoethoxy)-Sar]^3 cyclosporin A]?
A: Total bronchial and arteriole injury scoring ([1]; FIG. 5B): performed significantly better than the model (G2) and the positive group (G3); Total alveolar injury scoring ([1]; vs model G2, FIG. 5A): significant positive effect in terms of decreasing the severity of injuries to alveolar tissue; Tmax ([2]; both sexes, Sprague-Dawley (SD)): 30 min; Tissue distribution [2]: distribute to a greater degree to organ tissues, such as the kidney, and the lung; Non-invasive lung function tests (tidal volume, breath rate, peak inspiratory and expiratory flow) ([3]; ip 0.5 h and 6 h after LPS, 1, 5, 10 mg/kg, in particular 10 mg/kg, 24 h after LPS, FIG. 1): statistically relevant improvements in some of the lung function tests; Histological lung injury scoring (bronchial, arteriole and alveolar tissue) ([3]; ip 0.5 h and 6 h after LPS, all doses 1, 5, 10 mg/kg, vs model group G2, FIG. 2): significant effect in terms of decreasing the severity of injuries to bronchial, arteriole and alveolar tissue
